Measured values reported in patent US20100035297A1, “METHODS AND COMPOSITIONS FOR VASCULOGENIC POTENTIAL DETERMINATION” (INDIANA UNIVERSITY RESEARCH AND TECHNOLOGY CORPORATION, priority 2008, published 2010).

Columns and labels:
Assay type in all cases: cell-based, human
[1] = tested on: vascular network formation by EC on ASC monolayer; experiment: Vascular network formation (VNF) in EC-ASC co-culture; details: 6 days
Experimental: Medium with the same supplements were exchange at day 3. At day 6, wells with the co-cultures were fixed with methanol, stained for human CD31 antigen; 5-9 pictures/well at 4× were taken under fluorescent microscope and were analyzed for total tube length and branch points.
Co-culture of EC and ASC: ASCs were plated on culture plastic at a density of 60×10^3 cells/cm^2 in EBM-2/5% FBS media. In most experiments, ASCs were allowed to attach to the plates for three hours and then ECs from the indicated sources were plated on the top of ASC monolayer at densities ranging from 625 to 10,000 cells/cm^2. Cells were cultured in EBM-2/5% FBS for six days with media change at day 3. In a separate set of experiments, ASCs at 60×10^3 cells/cm^2 and CBD-ECs at 5×10^3 cells/cm^2 were premixed in EBM-2/5% FBS prior to plating.
In experiments assessing the role of various factors on EC-ASC interactions, co-cultures were incubated for 6 days in EBM-2/5% FBS media supplemented with: (1) neutralizing IgGs to: VEGF (RnD Systems, 2 μg/ml), HGF (RnD Systems, 2 μg/ml) or corresponding control mouse and goat IgGs (RnD Systems); (2) 10 μM GM6001 (Millipore, Billerica, Mass.), an inhibitor of MMP activity with a wide range of activity; (3) 50 μM AG1296 (Alexis, San Diego, Calif.), an inhibitor of PDGF receptor β activity; (4) and DMSO, which was used to dilute GM6001 and AG1296, as a negative control. Test cultures were exposed to the varying media conditions for six days.
(§1) Co-culture of ECs on ASC, NHDF and smooth muscle cell monolayers: Either ASCs, NHDFs, CASMCs, or AoSMCs were plated at a density of 60×10^3 cells/cm^2 in EBM-2/5% FBS media, three hours prior to overlaying them with 5×10^3 cells/cm^2 of CBD-ECs as previously described. The mixed cultures were incubated for six days with a routine media change at day 3. In experiments evaluating the effect of ASC conditioned media (ASC-CM) or added growth factors on vascular network formation, cells were cultured in EBM-2/5% FBS media that was either premixed with ASC-CM at a 1:1 ratio or supplemented with VEGF or HGF (10 ng/ml) as single growth factor controls. To generate ASC-CM, ASCs were grown to confluence in EGM-2mv in T75 flasks, followed by media replacement with EBM-2/5% FBS. After one day, 10 ml fresh EBM-2/5% FBS media was applied and removed after 72 hours conditioning. ASC-CM was collected, centrifuged at 300 g for five minutes, and supernatants frozen at 80° C. Cell number at the time of media collection was determined using hemocytometer.

ASCs = experiment: hASC mitogenic response to individual growth factors; details: factor added to basal medium, 10 pg to 10 ng, 4 days
Experimental: Evaluation of hASC Mitogenic Response to Individual Growth Factors: Freshly isolated ASCs were adhered on cell culture plastic for 2 days before harvesting attached cells with 0.05% trypsin/EDTA. Cells were seeded at 3×10^3 cells/cm^2 in 12-well plates and allowed to attach overnight in EBM-2/5% FBS medium, which was then replaced with EBM-2/5% FBS alone (control) or EBM-2/5% FBS supplemented with basic fibroblast growth factor (bFGF), epidermal growth factor (EGF), or platelet-derived growth factor (PDGF)-BB individually at final concentrations of 10 pg, 100 pg, 1 ng, or 10 ng each or the mixture of all of these, each at the specified concentration. Cells were cultured for 4 days, with a medium change after 48 hours, and then detached using 0.05% trypsin/EDTA, and viable cells were counted using a hemacytometer and trypan blue. Proliferation data are presented as the ratio of cells per well supplemented with growth factor to cells per well in control media.

EC+fibroblast co-culture = experiment: VNF by ECs co-cultured on fibroblast (NHDF) monolayer; details: growth factor 10 ng/ml, 6 days; control 0.54±0.1
Experimental: as §1

EC+CASMC co-culture = experiment: VNF by ECs co-cultured on CASMC monolayer; details: growth factor 10 ng/ml, 6 days; control 0.37±0.13
Experimental: as §1

Question: What does the source list for `COc1cc2ncc(-c3ccccc3)nc2cc1OC` [AG1296]?
Answer: total tube length ([1]; 50 μM, DMSO control 5.29±0.31): 1.07±0.14 mm/mm^2; degree of network branching ([1]; 50 μM, DMSO control 5.88±0.67): 0.26±0.06 branches/mm^2

Question: For “EGF: epidermal growth factor (NSDSECPLSHDGYCLHDGVCMYIEALDKYACNCVVGYIGERCQYRDLKWWELR; UniProt P01133 971-1023, looked up)”, which “effect on ASC proliferation” value (ASCs) is on record?
Answer: strong mitogenic effects

Question: How did the total tube length (EC+fibroblast co-culture) turn out when “HGF: hepatocyte growth factor, single growth factor supplement” was run?
Answer: 1.0±0.02 mm/mm^2

Question: What about the total tube length (EC+CASMC co-culture) of the same compound?
Answer: 0.74±0.21 mm/mm^2

Question: For bFGF: basic fibroblast growth factor, which “effect on ASC proliferation” value (ASCs) is on record?
Answer: strong mitogenic effects

Question: For `CNC(=O)[C@H](Cc1c[nH]c2ccccc12)NC(=O)[C@@H](CC(=O)NO)CC(C)C` [GM6001], which total tubes length ([1]; 10 μM, DMSO control 4.24±0.31) is on record?
Answer: 2.59±0.05 mm/mm^2

Question: What about the “degree of network branching” value ([1]; 10 μM, DMSO control 5.86±0.79) of the same compound?
Answer: 2.45±0.17 per mm^2

Question: How did the “increase of total tube length” value ([1]; EC-ASC co-culture, growth factor 10 ng/ml, vs control media) turn out when VEGF was run?
Answer: 76%

Question: What about the total tube length (EC+fibroblast co-culture) of the same compound?
Answer: 3.2±0.4 mm/mm^2

Question: What about the total tube length (EC+CASMC co-culture) of the same compound?
Answer: 0.9±0.18 mm/mm^2
